Experimental data taken from patent US20130280392A1, “PROCESS FOR CONTROLLING MICROORGANISMS IN BEVERAGE PRODUCTS” (DeLaval Holding AB, priority 2011, published 2013).

Tests used:
[1] = Degradation of PAA in juices over time, residual PAA by titration with 0.1N sodium thiosulfate; assay type: physicochemical; conditions: for PAA concentration (below detectable limit): after 10 min at 195° F. (90.5° C.); for half-life at 100 ppm: room temperature
Description: The half life of PAA decreases with increasing temperature. The half life of 100 ppm solution of PAA in carrot juice (Brix=8.8) at room temperature is less than 20 min. Similarly, the half life of a 100 ppm solution of PAA in apple juice (Brix=11.4) at room temperature is less than 30 min. After 10 min at 195° F. (90.5° C.), the PAA concentration of a 20 ppm solution of PAA in either carrot (Brix=8.8) or apple juice (Brix=11.4) is below the detectable limit of 0.89 ppm by titration with 0.1N sodium thiosulfate. Thus, when the juice is pasteurized and sent to an evaporator for concentration, any remaining PAA in solution would be converted to acetic acid, water, and oxygen, thereby leaving no or substantially no PAA remaining in the final juice product 32. Briefly, during the titration process, any oxidizing species present in the sample converts a solution of potassium iodide to iodine in the presence of ammonium paramolybdate and phosphoric acid. Subsequently, a starch solution is added to form a deep blue color upon binding iodine. The PAA concentration can be calculated based on the volume of titrant needed to revert the deep blue color.
In this experiment, several juices were dosed with peracetic acid (PAA) (peroxyacetic acid 5.6%, hydrogen peroxide 26.5%) and kept at a controlled temperature (22° C. or 90° C.) for a given period of time to determine how the PAA would degrade over time. At the end of the given time period, the level of PAA remaining in the juice was measured by titration with 0.1N sodium thiosulfate. It can be seen that the PAA decomposed quite rapidly in the various juices, particularly when exposed to elevated temperatures.

[2] = tested on: Alicyclobacillus acidoterrestris; assay: Antimicrobial efficacy of PAA in organic apple and carrot juice, MPN viability count; assay type: cell-based; conditions: 22° C.
Description: In this experiment, the antimicrobial efficacy of PAA in organic apple and carrot juice was measured by challenging the juices with 1×10^7 CFU/ml of Alicyclobacillus acidoterrestris, a spore-forming thermophile commonly present in juice operations. Immediately following bacterial challenge, the juice was dosed with different concentrations of PAA and incubated at room temperature (22° C.) for 10 minutes without agitation. After the subscribed contact time, the PAA was neutralized with D/E broth and a viability count for each of the juices was performed using the most probable number technique (MPN).

[3] = tested on: Alicyclobacillus acidoterrestris ATCC 49025; assay: Germicidal efficacy of PAA and chlorine dioxide in dilute nutrient solution, apple juice and carrot juice, MPN viability count; assay type: cell-based; conditions: for LR: 22° C., 10 minutes contact, inoculum 1.40×10^7 CFU/ml; for reduction in the bacteria: all treated samples of Table 3 (5 and 10 ppm; nutrient solution, apple juice, carrot juice)
Description: In this experiment, the germicidal efficacy of various concentrations of PAA and chlorine dioxide (by dilution of CDG Solution 3000™, CDG Environmental LLC) at 22° C. after 10 minutes of contact time was determined in a dilute nutrient solution (Tryptone pancreatic digest of casein 1.0 g/L and NaCl 8.5 g/L), apple juice, and carrot juice. Alicyclobacillus acidoterrestris ATCC 49025 was used as the inoculum at a concentration of 1.40×10^7 CFU/ml. After the subscribed contact time, the PAA was neutralized with D/E broth and chlorine dioxide with a peroxide neutralizer, and a viability count for each of the juices was performed using the most probable number technique (MPN). The results are shown in Table 3, and graphically in FIG. 5.

[4] = Chlorine dioxide demand of apple and carrot juice (HACH DPD Method #10126); assay type: physicochemical; conditions: 22° C., 10 minutes
Description: In this experiment, apple juice and carrot juice were exposed to pure and stable chlorine dioxide (CDG Solution 3000™, CDG Environmental, LLC) in order to determine their respective chlorine dioxide demands, as determined by HACH DPD Method for Chlorine dioxide (Method #10126). The juice samples were exposed to the chlorine dioxide under room temperature conditions (22° C.), and then the residual concentrations determined 10 minutes after exposure. It can be seen that the chlorine dioxide demands were relatively high.

[5] = 5 ppm, dilute nutrient solution
[6] = 10 ppm, dilute nutrient solution
[7] = apple juice, Brix 11.4, exposed concentration 5 ppm
[8] = apple juice, Brix 11.4, exposed concentration 10 ppm
[9] = apple juice, Brix 11.4, exposed concentration 25 ppm
[10] = apple juice, Brix 11.4, exposed concentration 60 ppm
[11] = carrot juice, Brix 8.8, exposed concentration 5 ppm
[12] = carrot juice, Brix 8.8, exposed concentration 10 ppm
[13] = carrot juice, Brix 8.8, exposed concentration 25 ppm
[14] = carrot juice, Brix 8.8, exposed concentration 60 ppm

## CC(=O)OO [PAA, peracetic acid]
[1]; 20 ppm PAA in apple juice (Brix=11.4)
  PAA concentration (below detectable limit): < 0.89 ppm
[1]; 20 ppm PAA in carrot juice (Brix=8.8)
  PAA concentration (below detectable limit): < 0.89 ppm
[1]; 100 ppm solution of PAA in apple juice (Brix=11.4)
  half-life at 100 ppm: < 30 min
[1]; 100 ppm solution of PAA in carrot juice (Brix=8.8)
  half-life at 100 ppm: < 20 min
[1]; apple juice, Brix 11.4, PAA dosed 20 ppm, 90° C., 10 min, followed by 5 min in ice
  PAA read: <0.98 ppm
[1]; apple juice, Brix 11.4, PAA dosed 100 ppm, 22° C., 60 min
  PAA read: 19.6 ppm
[1]; apple juice, Brix 11.4, PAA dosed 100 ppm, 90° C., 10 min, followed by 5 min in ice
  PAA read: 15.7 ppm
[1]; carrot juice, Brix 8.8, PAA dosed 20 ppm, 90° C., 10 min, followed by 5 min in ice
  PAA read: <0.98 ppm
[1]; carrot juice, Brix 8.8, PAA dosed 100 ppm, 22° C., 60 min
  PAA read: 3.92 ppm
[1]; carrot juice, Brix 8.8, PAA dosed 100 ppm, 90° C., 10 min, followed by 5 min in ice
  PAA read: 2.94 ppm
[2]; PAA dose as low as 0.35 ppm, 10 minutes
  loss in cell viability: substantial loss in cell viability
[2]; all PAA-treated samples, 1×10^7 CFU/ml challenge, 10 minutes (FIG. 4)
  reduction in the bacteria: > 4 log
[3]; 5 ppm, apple juice
  LR: 4.34
[3]; 5 ppm, carrot juice
  LR: 4.18
[3]; [5]
  LR: 4.18
[3]; 10 ppm, apple juice
  LR: 4.48
[3]; 10 ppm, carrot juice
  LR: 4.34
[3]; [6]
  LR: 4.51
[3]
  reduction in the bacteria: > 4 log

## [O][Cl+][O-] [chlorine dioxide]
[4]; [7]
  Demand: >4.95 ppm
  Read Concentration: <0.05 ppm
[4]; [8]
  Demand: 9.32 ppm
  Read Concentration: 0.68 ppm
[4]; [9]
  Demand: 24.3 ppm
  Read Concentration: 0.7 ppm
[4]; [10]
  Demand: 57.8 ppm
  Read Concentration: 2.2 ppm
[4]; [11]
  Demand: >4.95 ppm
  Read Concentration: <0.05 ppm
[4]; [12]
  Demand: >9.95 ppm
  Read Concentration: <0.05 ppm
[4]; [13]
  Demand: >24.97 ppm
  Read Concentration: <0.05 ppm
[4]; [14]
  Demand: 59.87 ppm
  Read Concentration: 0.13 ppm
[3]; 5 ppm, apple juice
  LR: 0.65
[3]; 5 ppm, carrot juice
  LR: 1.12
[3]; [5]
  LR: 1.34
[3]; 10 ppm, apple juice
  LR: 1.18
[3]; 10 ppm, carrot juice
  LR: 1.57
[3]; [6]
  LR: 1.24
[3]
  reduction in the bacteria: ~1 log
